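Assay format: 96-well plates, 48-hour exposure. TGI is the concentration that stops growth completely.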
Columns and labels:
Assay in all cases: NCI tumour cell line growth inhibition, 48 h
786-0 renal = test system: 786-0 renal
ACHN renal = test system: ACHN renal
CAKI-1 renal = test system: CAKI-1 renal
CCRF-CEM leukemia = test system: CCRF-CEM leukemia
COLO 205 colon = test system: COLO 205 colon
DLD-1 colon = test system: DLD-1 colon
DMS 273 small cell lung = test system: DMS 273 small cell lung
EKVX NSCLC = test system: EKVX NSCLC
HCC-2998 colon = test system: HCC-2998 colon
HCT-116 colon = test system: HCT-116 colon
HL-60(TB) leukemia = test system: HL-60(TB) leukemia
HOP-18 NSCLC = test system: HOP-18 NSCLC
HOP-92 NSCLC = test system: HOP-92 NSCLC
HT29 colon = test system: HT29 colon
K-562 leukemia = test system: K-562 leukemia
KM12 colon = test system: KM12 colon
KM20L2 colon = test system: KM20L2 colon
LOX IMVI melanoma = test system: LOX IMVI melanoma
LXFL 529 NSCLC = test system: LXFL 529 NSCLC
M14 melanoma = test system: M14 melanoma
M19-MEL melanoma = test system: M19-MEL melanoma
MALME-3M melanoma = test system: MALME-3M melanoma
NCI-H226 lung = test system: NCI-H226 lung
NCI-H23 lung = test system: NCI-H23 lung
NCI-H522 lung = test system: NCI-H522 lung
OVCAR-3 ovarian = test system: OVCAR-3 ovarian
OVCAR-4 ovarian = test system: OVCAR-4 ovarian
OVCAR-5 ovarian = test system: OVCAR-5 ovarian
OVCAR-8 ovarian = test system: OVCAR-8 ovarian
RPMI-8226 leukemia = test system: RPMI-8226 leukemia
SF-268 CNS = test system: SF-268 CNS
SF-295 CNS = test system: SF-295 CNS
SK-MEL-2 melanoma = test system: SK-MEL-2 melanoma
SK-MEL-5 melanoma = test system: SK-MEL-5 melanoma
SN12C renal = test system: SN12C renal
SW-620 colon = test system: SW-620 colon
TK-10 renal = test system: TK-10 renal
U251 CNS = test system: U251 CNS
UACC-62 melanoma = test system: UACC-62 melanoma
A498 renal = test system: A498 renal
A549 NSCLC = test system: A549 NSCLC
HCT-15 colon = test system: HCT-15 colon
HOP-62 NSCLC = test system: HOP-62 NSCLC
IGROV1 ovarian = test system: IGROV1 ovarian
MOLT-4 leukemia = test system: MOLT-4 leukemia
NCI-H460 lung = test system: NCI-H460 lung
SF-539 CNS = test system: SF-539 CNS
SK-OV-3 ovarian = test system: SK-OV-3 ovarian
SNB-19 CNS = test system: SNB-19 CNS
SNB-75 CNS = test system: SNB-75 CNS
SNB-78 CNS = test system: SNB-78 CNS
SR leukemia = test system: SR leukemia
UACC-257 melanoma = test system: UACC-257 melanoma
UO-31 renal = test system: UO-31 renal

In the case of `C[C@@]12[Se]c3ccccc3[C@]1(C)[Se]c1ccccc12`, the TGI (786-0 renal) is reported as over 100 µM, the TGI (ACHN renal) is reported as over 100 µM and the TGI (CAKI-1 renal) is reported as over 100 µM. The TGI (CCRF-CEM leukemia) was over 100 µM, the TGI (COLO 205 colon) was over 100 µM and the TGI (DLD-1 colon) was over 100 µM. It also gave a TGI (DMS 273 small cell lung) of over 100 µM, a TGI (EKVX NSCLC) of over 100 µM and a TGI (HCC-2998 colon) of over 100 µM. The TGI (HCT-116 colon) was over 100 µM, the TGI (HL-60(TB) leukemia) was 8.4 µM and the TGI (HOP-18 NSCLC) was over 100 µM. It also gave a TGI (HOP-92 NSCLC) of over 100 µM, a TGI (HT29 colon) of over 100 µM and a TGI (K-562 leukemia) of over 100 µM. It also gave a TGI (KM12 colon) of over 100 µM, a TGI (KM20L2 colon) of over 100 µM and a TGI (LOX IMVI melanoma) of over 100 µM. For the same compound, the TGI (LXFL 529 NSCLC) was over 100 µM, the TGI (M14 melanoma) was over 100 µM and the TGI (M19-MEL melanoma) was over 100 µM. For the same compound, the TGI (MALME-3M melanoma) was over 100 µM, the TGI (NCI-H226 lung) was over 100 µM and the TGI (NCI-H23 lung) was over 100 µM. It also gave a TGI (NCI-H522 lung) of over 100 µM, a TGI (OVCAR-3 ovarian) of over 100 µM and a TGI (OVCAR-4 ovarian) of over 100 µM. For the same compound, the TGI (OVCAR-5 ovarian) was over 100 µM, the TGI (OVCAR-8 ovarian) was over 100 µM and the TGI (RPMI-8226 leukemia) was over 100 µM. It also gave a TGI (SF-268 CNS) of over 100 µM, a TGI (SF-295 CNS) of over 100 µM and a TGI (SK-MEL-2 melanoma) of over 100 µM. It also gave a TGI (SK-MEL-5 melanoma) of over 100 µM, a TGI (SN12C renal) of over 100 µM and a TGI (SW-620 colon) of over 100 µM. For the same compound, the TGI (TK-10 renal) was over 100 µM, the TGI (U251 CNS) was over 100 µM and the TGI (UACC-62 melanoma) was 7.18 µM.
`CC(=O)Nc1ccc(S(=O)(=O)N/N=C(\C)CN2C(=O)c3ccccc3C2=O)cc1` showed a TGI (786-0 renal) of over 100 µM, a TGI (A498 renal) of over 100 µM and a TGI (A549 NSCLC) of over 100 µM. The TGI (ACHN renal) was over 100 µM, the TGI (CAKI-1 renal) was over 100 µM and the TGI (CCRF-CEM leukemia) was over 100 µM. For the same compound, the TGI (COLO 205 colon) was over 100 µM, the TGI (DLD-1 colon) was over 100 µM and the TGI (DMS 273 small cell lung) was over 100 µM. For the same compound, the TGI (EKVX NSCLC) was over 100 µM, the TGI (HCC-2998 colon) was over 100 µM and the TGI (HCT-116 colon) was over 100 µM. It also gave a TGI (HCT-15 colon) of over 100 µM, a TGI (HL-60(TB) leukemia) of over 100 µM and a TGI (HOP-18 NSCLC) of over 100 µM. It also gave a TGI (HOP-62 NSCLC) of over 100 µM, a TGI (HT29 colon) of over 100 µM and a TGI (IGROV1 ovarian) of over 100 µM. The TGI (K-562 leukemia) was over 100 µM, the TGI (KM12 colon) was over 100 µM and the TGI (KM20L2 colon) was over 100 µM. The TGI (LXFL 529 NSCLC) was over 100 µM, the TGI (M14 melanoma) was over 100 µM and the TGI (M19-MEL melanoma) was over 100 µM. It also gave a TGI (MALME-3M melanoma) of over 100 µM, a TGI (MOLT-4 leukemia) of over 100 µM and a TGI (NCI-H226 lung) of over 100 µM. It also gave a TGI (NCI-H23 lung) of over 100 µM, a TGI (NCI-H460 lung) of over 100 µM and a TGI (NCI-H522 lung) of over 100 µM. The TGI (OVCAR-3 ovarian) was over 100 µM, the TGI (OVCAR-4 ovarian) was over 100 µM and the TGI (OVCAR-5 ovarian) was over 100 µM. For the same compound, the TGI (OVCAR-8 ovarian) was over 100 µM, the TGI (RPMI-8226 leukemia) was over 100 µM and the TGI (SF-295 CNS) was over 100 µM. For the same compound, the TGI (SF-539 CNS) was over 100 µM, the TGI (SK-MEL-2 melanoma) was over 100 µM and the TGI (SK-MEL-5 melanoma) was over 100 µM. For the same compound, the TGI (SK-OV-3 ovarian) was over 100 µM, the TGI (SN12C renal) was over 100 µM and the TGI (SNB-19 CNS) was over 100 µM. The TGI (SNB-75 CNS) was over 100 µM, the TGI (SNB-78 CNS) was over 100 µM and the TGI (SR leukemia) was over 100 µM. For the same compound, the TGI (SW-620 colon) was over 100 µM, the TGI (TK-10 renal) was over 100 µM and the TGI (U251 CNS) was over 100 µM. It also gave a TGI (UACC-257 melanoma) of over 100 µM, a TGI (UACC-62 melanoma) of over 100 µM and a TGI (UO-31 renal) of over 100 µM.

Source: PubChem BioAssay (NCI)
